Experimental data from US20240366612A1, “COMPOUNDS AND METHODS FOR MODULATING NUCLEIC ACID SPLICING” (REMIX THERAPEUTICS INC., priority 2021, published 2024).
Structures can show the parent of a compound that is named as a salt.

Legend:
Format in all cases: cell-based
[1] = tested on: HTT mRNA; assay: Splicing RT-qPCR assay, HTT canonical (CJ) and alternative (AJ) junction mRNA; conditions: Homo sapiens, A673 or K562 cells, 24 hours treatment; for IC50: decrease in CJ mRNA; for AC50: increase in AJ mRNA
Summary of the method: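 Compound-treated A673 or K562 cells (11-point 3-fold dilution, top dose 10 uM final, DMSO ≤0.25%) were incubated for 24 h at 37° C. Lysates underwent one-step RT-qPCR for canonical and alternative-exon junction isoforms. Normalization used PPIA for A673 and GAPDH or GUSB for K562.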

[2] = tested on: MYB CJ mRNA; assay: Gene panel canonical junction qPCR assay, MYB; conditions: Homo sapiens, larger gene panel, read-out: MYB IC50 (decrease in CJ mRNA levels)
Summary of the method: (§1)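 A673 or K562 cells treated 24 h with 11-point 3-fold dilutions (top 10 µM, ≤0.25% DMSO) at 37 °C. Canonical exon-junction mRNA measured by probe-based RT-qPCR, normalized to GAPDH, GUSB or PPIA and DMSO (2^−ΔΔCt), converted to percent response over a fixed ΔCt window; IC50 from 4-parameter fit.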

[3] = tested on: Target C CJ mRNA; assay: Gene panel canonical junction qPCR assay, Target C; conditions: Homo sapiens, larger gene panel, read-out: Target C IC50 (decrease in CJ mRNA levels)
Summary of the method: as §1

| SMILES | IC50 [1] [µM] | AC50 [1] [µM] | IC50 [2] [µM] | IC50 [3] [µM] |
| --- | --- | --- | --- | --- |
| Cc1cn2cc(-c3cc4ncn(C5CCNCC5)c(=O)c4s3)ncc2n1 [Compound 264] | 1 to 10 | 1 to 10 | 1 to 10 | 1 to 10 |
| Cc1cn2nc(-c3nc4sc(N5CCNCC5)nc4c(=O)[nH]3)cc2c(C)n1 [Compound 267] | 0.1 to 1 | 0.1 to 1 | 0.1 to 1 | 0.1 to 1 |
| Cc1cc(-c2cc3ncn(C4CCN(C)CC4)c(=O)c3s2)cc2cn(C)nc12 [Compound 237, 6-(2,7-dimethyl-2H-indazol-5-yl)-3-(1-methylpiperidin-4-yl)thieno[3,2-d]pyrimidin-4(3H)-one] | 0.1 to 1 | 0.1 to 1 | 0.1 to 1 | 1 to 10 |
| Cc1cn2cc(-c3nc4cnn(C5CCNCC5)c(=O)c4s3)nc(C)c2n1 [Compound 812, 2-(2,8-dimethylimidazo[1,2-a]pyrazin-6-yl)-6-(piperidin-4-yl)thiazolo[4,5-d]pyridazin-7(6H)-one] | > 10 | > 10 | > 10 | > 10 |
| Cc1cn2cc(-c3cn4c(=O)cc(N5CCNC6(CC6)C5)nc4s3)cc(F)c2n1 [Compound 208, 2-(8-fluoro-2-methylimidazo[1,2-a]pyridin-6-yl)-7-(4,7-diazaspiro[2.5]octan-7-yl)-5H-thiazolo[3,2-a]pyrimidin-5-one] | 1 to 10 | 1 to 10 | 1 to 10 | 1 to 10 |
| Cc1cn2cc(-c3nn4c(=O)cc(N5CCN(C)CC5)nc4s3)cc(F)c2n1 [Compound 217, 2-(8-fluoro-2-methylimidazo[1,2-a]pyridin-6-yl)-7-(4-methylpiperazin-1-yl)-5H-[1,3,4]thiadiazolo[3,2-a]pyrimidin-5-one] | 1 to 10 | 1 to 10 | 1 to 10 | 1 to 10 |
| Cc1cn2cc(-c3cc4ncn(C5CCCNCC5)c(=O)c4s3)cc(F)c2n1 (stereo not drawn) [Compound 275, 3-(azepan-4-yl)-6-{8-fluoro-2-methylimidazo[1,2-a]pyridin-6-yl}thieno[3,2-d]pyrimidin-4-one] | 0.1 to 1 | 0.1 to 1 | 0.1 to 1 | 0.1 to 1 |
| Cc1nc(-c2nc3cnn(C4CCNCC4)c(=O)c3s2)cc2cn(C)nc12 [Compound 811] | 1 to 10 | 1 to 10 | 1 to 10 | > 10 |
| Cc1cn2cc(-c3cc4ncn([C@H]5CCN[C@@H](C)C5)c(=O)c4s3)cc(F)c2n1 (relative stereo) [Compound 278, 6-{8-fluoro-2-methylimidazo[1,2-a]pyridin-6-yl}-3-[(cis)-2-methylpiperidin-4-yl]thieno[3,2-d]pyrimidin-4-one hydrochloride] | 0.1 to 1 | 0.1 to 1 | 0.1 to 1 | 0.1 to 1 |
| Cc1cn2cc(-c3cc4ncn(C5CCNC5)c(=O)c4s3)cc(F)c2n1 (stereo not drawn) [Compound 270, 6-{8-fluoro-2-methylimidazo[1,2-a]pyridin-6-yl}-3-(pyrrolidin-3-yl)thieno[3,2-d]pyrimidin-4-one] | 0.1 to 1 | 0.1 to 1 | 0.1 to 1 | 0.1 to 1 |
| Cc1cn2cc(-c3cn4c(=O)cc(N5CCNCC5)nc4s3)cc(F)c2n1 [Compound 213, 2-(8-fluoro-2-methylimidazo[1,2-a]pyridin-6-yl)-7-(piperazin-1-yl)-5H-thiazolo[3,2-a]pyrimidin-5-one] | > 10 | > 10 | > 10 | > 10 |
| Cc1nc(-c2cc3ncn(C4CCNCC4)c(=O)c3s2)cc2cn(C)nc12 [Compound 271] | 1 to 10 | 1 to 10 | 0.1 to 1 | 1 to 10 |
| Cc1nc(-c2nc3ncn(C4CCNCC4)c(=O)c3s2)cc2cn(C)nc12 [Compound 251, 2-(2,7-dimethyl-2H-pyrazolo[3,4-c]pyridin-5-yl)-6-(piperidin-4-yl)thiazolo[4,5-d]pyrimidin-7(6H)-one] | 1 to 10 | 1 to 10 | 1 to 10 | > 10 |
| Cn1cc2cc(-c3nc4ncn(C5CCNCC5)c(=O)c4s3)c(O)cc2n1 [Compound 253, 2-(6-hydroxy-2-methyl-2H-indazol-5-yl)-6-(piperidin-4-yl)thiazolo[4,5-d]pyrimidin-7(6H)-one, hydrochloride] | 1 to 10 | 1 to 10 | 1 to 10 | 1 to 10 |
| Cc1cn2cc(-n3cnc4nc(N5CCN(C)CC5)sc4c3=O)cc(C(F)(F)F)c2n1 [Compound 230, 6-(2-methyl-8-(trifluoromethyl)imidazo[1,2-a]pyridin-6-yl)-2-(4-methylpiperazin-1-yl)thiazolo[4,5-d]pyrimidin-7(6H)-one] | > 10 | > 10 | > 10 | > 10 |
| Cc1cn2cc(-n3cnc4nc(N5CCN(C)CC5)sc4c3=O)cc(F)c2n1 [Compound 228, 6-(8-fluoro-2-methylimidazo[1,2-a]pyridin-6-yl)-2-(4-methylpiperazin-1-yl)thiazolo[4,5-d]pyrimidin-7(6H)-one] | 1 to 10 | 1 to 10 | 1 to 10 | 1 to 10 |
| Cc1cn2nc(-c3cc4ncn(C5CCNCC5)c(=O)c4s3)cc2c(C)n1 [Compound 262] | 0.1 to 1 | 0.1 to 1 | 0.1 to 1 | 0.1 to 1 |
| Cc1cn2cc(-c3cc4ncn([C@H]5CCN[C@H](C)C5)c(=O)c4s3)cc(F)c2n1 (relative stereo) [Compound 277, 6-{8-fluoro-2-methylimidazo[1,2-a]pyridin-6-yl}-3-[(trans)-2-methylpiperidin-4-yl]thieno[3,2-d]pyrimidin-4-one] | 0.1 to 1 | 0.1 to 1 | 0.1 to 1 | 1 to 10 |
| Cc1cn2nc(-c3nc4sc(N5CCN(C)CC5)nc4c(=O)[nH]3)cc2c(C)n1 [Compound 268] | > 10 | > 10 | > 10 | > 10 |
| Cc1cn2cc(-c3nc4sc(C5CCN(C)CC5)cc4c(=O)[nH]3)cc(F)c2n1 [Compound 256, 2-(8-fluoro-2-methylimidazo[1,2-a]pyridin-6-yl)-6-(1-methylpiperidin-4-yl)thieno[2,3-d]pyrimidin-4(3H)-one] | > 10 | > 10 | > 10 | > 10 |
| Cc1cn2cc(N3CCc4cc(C5CCNCC5)sc4C3=O)cc(F)c2n1 [Compound 800, 6-[8-fluoro-2-methylimidazo[1,2-a]pyridin-6-yl]-2-(piperidin-4-yl)-4H,5H-thieno[2,3-c]pyridin-7-one] | > 10 | > 10 | > 10 | > 10 |
| Cc1cn2cc(-c3cc4ccn(C5CCN(C)CC5)c(=O)c4s3)cc(F)c2n1 [Compound 808, 2-(8-fluoro-2-methylimidazo[1,2-a]pyridin-6-yl)-6-(1-methylpiperidin-4-yl)thieno[2,3-c]pyridin-7(6H)-one] | 0.1 to 1 | 1 to 10 | 0.1 to 1 | 1 to 10 |
| Cc1cc(-c2nn3c(=O)cc(N4CCNCC4)nc3s2)cc2cn(C)nc12 [Compound 206, 2-(2,7-dimethyl-2H-indazol-5-yl)-7-(piperazin-1-yl)-5H-[1,3,4]thiadiazolo[3,2-a]pyrimidin-5-one] | 1 to 10 | 1 to 10 | 1 to 10 | 1 to 10 |
| Cc1cn2nc(-c3cc4ncn(C5CCN(C)CC5)c(=O)c4s3)cc(C)c2n1 [Compound 239, 6-(2,8-dimethylimidazo[1,2-b]pyridazin-6-yl)-3-(1-methylpiperidin-4-yl)thieno[3,2-d]pyrimidin-4(3H)-one] | 1 to 10 | 1 to 10 | 1 to 10 | > 10 |
| Cc1cc(-c2nc3ncn(C4CCN(C)CC4)c(=O)c3s2)cc2cn(C)nc12 [Compound 234, 2-(2,7-dimethyl-2H-indazol-5-yl)-6-(1-methylpiperidin-4-yl)thiazolo[4,5-d]pyrimidin-7(6H)-one] | 0.1 to 1 | 0.1 to 1 | 0.1 to 1 | 1 to 10 |
| Cc1cn2cc(-n3ccc4cc(C5CCNCC5)sc4c3=O)cc(F)c2n1 [Compound 801, 6-[8-fluoro-2-methylimidazo[1,2-a]pyridin-6-yl]-2-(piperidin-4-yl)thieno[2,3-c]pyridin-7-one] | > 10 | > 10 | > 10 | > 10 |
| Cc1cn2cc(-c3cc4ncn([C@H]5CCNC[C@@H]5F)c(=O)c4s3)cc(F)c2n1 (relative stereo) [Compound 272, trans-6-{8-fluoro-2-methylimidazo[1,2-a]pyridin-6-yl}-3-[3-fluoropiperidin-4-yl]thieno[3,2-d]pyrimidin-4-one] | 1 to 10 | > 10 | 1 to 10 | > 10 |
| Cn1cc2cc(-c3cc4ncn(C5CCNCC5)c(=O)c4s3)c(F)cc2n1 [Compound 258] | 0.1 to 1 | 0.1 to 1 | 0.1 to 1 | 1 to 10 |
| Cc1cn2cc(-c3nc4ncn(C5CCNCC5)c(=O)c4s3)cc(F)c2n1 [Compound 232, 2-(8-fluoro-2-methylimidazo[1,2-a]pyridin-6-yl)-6-(piperidin-4-yl)thiazolo[4,5-d]pyrimidin-7(6H)-one] | < 0.1 | < 0.1 | 0.1 to 1 | 0.1 to 1 |
| Cn1cc2cc(-c3cc4ncn(C5CCNCC5)c(=O)c4s3)cc(F)c2n1 [Compound 257] | 1 to 10 | 1 to 10 | 1 to 10 | 1 to 10 |
